Values of other authors in patent publication US20160067252A1, “TRANSDERMAL DELIVERY OF SILDENAFIL AND OTHER PHOSPHODIESTERASE TYPE 5 INHIBITORS” (STRATEGIC SCIENCE & TECHNOLOGIES, LLC, priority 2013, published 2016).

SMILES	pKa
CCCOc1ccc(S(=O)(=O)N2CCN(CCO)CC2)cc1-c1nc2c(CCC)cn(CC)c2c(=O)[nH]1 [mirodenafil]	6.0
CN1CC(=O)N2[C@H](c3ccc4c(c3)OCO4)c3[nH]c4ccccc4c3C[C@@H]2C1=O [tadalafil]	18
CCCOc1ccc(S(=O)(=O)NCCC2CCCN2C)cc1-c1nc2c(CCC)nn(C)c2c(=O)[nH]1 (stereo not drawn) [udenafil]	10.53
